The values that follow come from patent US20230416270A1, “NOVEL CAMPTOTHECIN DERIVATIVE, COMPOSITION COMPRISING SAME AND USE THEREOF” (priority 2020, published 2023).

Numbered stars: 1 amine (or outer) side, 2 acyl side, 3 side chain; on linkers, the order of the positions; unused ones are H or OH. Square brackets hold non-standard residues; d marks the D form. Peptide text beside a SMILES is read from it. * marks the point of attachment. Exatecan = CC[C@@]1(O)C(=O)OCc2c1cc1n(c2=O)Cc2c-1nc1cc(F)c(C)c3c1c2[C@@H](N*)CC3; Hexanoyl(6-maleimido) = O=C1C=CC(=O)N1CCCCCC(=O)*; NHCH2OCH2CO = O=C(COCN[*:1])[*:2]

One experiment relates to SK-BR-3 cells. As to the kind of experiment: Assay for antiproliferative activity against SK-BR-3 cells (CellTiter-Lumi, ATP content). In kind it is cell-based. The following applies: Homo sapiens, SK-BR-3, 72 h, read-out: IC50 (nM), antiproliferative activity against SK-BR-3 cells. The protocol: The activity of the antibody-drug conjugate of the present invention can be determined by the assay for the in-vitro antiproliferative activity against SK-BR-3 cells of a camptothecin derivative as a small molecule toxin.
SK-BR-3 cells were seeded into a 384-well plate (Fisher 142762) at 3000 cells per well. The next day, serially diluted compounds were added, and 72 hours after the addition, CellTiter-Lumi (Beyotime C0068XL) was added to measure the ATP content in the cells. The growth of the cells was evaluated, and relative IC50 values of the compounds against cell growth was calculated.
One may read the IC50 as the concentration needed to halve the response being measured. Regarding `CC[C@@]1(O)C(=O)OCc2c1cc1n(c2=O)Cc2c-1nc1cc(F)c(C)c3c1c2C(N)CS3` (stereo partly drawn) [Compound 1, (9S)-1-amino-9-ethyl-5-fluoro-9-hydroxy-4-methyl-1,9,12,15-tetrahydro-13H-pyrano[3′, 4′:6,7]indolizino[1,2-b]thiopyrano[4,3,2-de]quinoline-10,13(2H)-dione], the IC50 was determined as 2.98 nM. As to `CC[C@@]1(O)C(=O)OCc2c1cc1n(c2=O)Cc2c-1nc1cc(F)c(C)c3c1c2[C@H](N)CS3` [Compound 1-1], the concentration for half-maximal inhibition (IC50) was 5.81 nM.

Regarding `CC[C@@]1(O)C(=O)OCc2c1cc1n(c2=O)Cc2c-1nc1cc(F)c(C)c3c1c2[C@@H](N)CS3` [Compound 1-2], the IC50 is 1.73 nM. In the case of `CC[C@@]1(O)C(=O)OCc2c1cc1n(c2=O)Cc2c-1nc1cc(F)c(OC)c3c1c2[C@@H](N)CS3` [Compound 4-2], the concentration for half-maximal inhibition (IC50) was 2.74 nM. In the case of `CC[C@@]1(O)C(=O)OCc2c1cc1n(c2=O)Cc2c-1nc1cc(F)c(C)c3c1c2[C@@H](N)CO3` [Compound 7-2], the IC50 is 2.68 nM. For `CC[C@@]1(O)C(=O)OCc2c1cc1n(c2=O)Cc2c-1nc1cc(F)c(C)c3c1c2[C@@H](NC)CS3` [Compound 14-2], the 50% inhibitory concentration (IC50) turned out to be 4.13 nM. Turning to `CC[C@@]1(O)C(=O)OCc2c1cc1n(c2=O)Cc2c-1nc1cc(F)c(C)c3c1c2C(O)CS3` (some centres unmarked) [Compound 20], the 50% inhibitory concentration (IC50) was determined as 5.83 nM. On the same count and under the same terms, the same measure for `CCc1c(F)cc2nc3c(c4c2c1SC[C@@H]4NC(=O)CO)Cn1c-3cc2c(c1=O)COC(=O)[C@]2(O)CC` [Compound 34]: 5.84 nM; for `CC[C@@]1(O)C(=O)OCc2c1cc1n(c2=O)Cc2c-1nc1cc(F)c(OC)c3c1c2[C@@H](NC(=O)CO)CS3` [Compound 35]: 6.53 nM. Consider `Cc1c(F)cc2nc3c(c4c2c1SC[C@@H]4NC(=O)CO)Cn1c-3cc2c(c1=O)COC(=O)[C@]2(O)CCF` [Compound 39], for which the IC50 worked out at 4.78 nM.

As to `CC[C@@]1(O)C(=O)OCc2c1cc1n(c2=O)Cc2c-1nc1cc(F)c(C)c3c1c2[C@@H](NC(=O)CO)CO3` [Compound 41], the IC50 is 6.47 nM. In the case of `CC[C@@]1(O)C(=O)OCc2c1cc1n(c2=O)Cc2c-1nc1cc(F)c(C)c3c1c2[C@@H](NC(=O)[C@H](C)O)CS3` [Compound 44], the IC50 came to 6.29 nM. Consider `CC[C@@]1(O)C(=O)OCc2c1cc1n(c2=O)Cc2c-1nc1cc(F)c(C)c3c1c2[C@@H](NC(=O)[C@@H](O)C1CC1)CS3` [Compound 48], for which the IC50 worked out at 6.73 nM.

On to `CC[C@@]1(O)C(=O)OCc2c1cc1n(c2=O)Cc2c-1nc1cc(F)c(C)c3c1c2[C@@H](NC(=O)[C@H](O)C1CC1)CS3` [Compound 49], for which the IC50 came to 7.32 nM. Take `CC[C@@]1(O)C(=O)OCc2c1cc1n(c2=O)Cc2c-1nc1cc(F)c(C)c3c1c2[C@@H](N)CC3` [Exatecan, reference compound]: the IC50 was determined as 5.35 nM.

The same experiment, now with this note: Homo sapiens; SK-BR-3, 72 hours after compound addition, relative IC50; read-out: IC50 (nM), antiproliferative activity against SK-BR-3 cells.
For the compound `CCc1c(F)cc2nc3c(c4c2c1SC[C@@H]4N)Cn1c-3cc2c(c1=O)COC(=O)[C@]2(O)CC` [Compound 3-2], the half-maximal inhibitory concentration (IC50) amounted to 2.85 nM.

`CC[C@@]1(O)C(=O)OCc2c1cc1n(c2=O)Cc2cc3c(CN(C)C)c(O)ccc3nc2-1` [Topotecan, reference compound]: the half-maximal inhibitory concentration (IC50) stood at 58.3 nM.

The experiment is the same for the next values; noted with them: SK-BR-3, 72 hours after compound addition, relative IC50; read-out: IC50 (nM), antiproliferative activity against SK-BR-3 cells.
On to `CC[C@@]1(O)C(=O)OCc2c1cc1n(c2=O)Cc2c-1nc1cc(F)c(C)c3c1c2[C@@H](NC(=O)COCNC(=O)CNC(=O)[C@H](Cc1ccccc1)NC(=O)CNC(=O)CNC(=O)CCCCCN1C(=O)C=CC1=O)CC3` [Deruxtecan, reference compound] ({Hexanoyl(6-maleimido)}-GGFG[NHCH2OCH2CO]-Exatecan), for which the IC50 turned out to be 13.6 nM.

Still in this experiment, the particulars now being: SK-BR-3 antiproliferative activity, relative to exatecan.
In the case of `CC[C@@]1(O)C(=O)OCc2c1cc1n(c2=O)Cc2c-1nc1cc(F)c(C)c3c1c2[C@@H](N)CS3` [Compound 1-2], the “fold more active than exatecan” value is 2 fold.

In a further experiment the test system is SK-BR-3 cells with high expression of HER2. As to the kind of experiment: cells. In kind it is cell-based. The following applies: Homo sapiens, SK-BR-3, 144 h, read-out: IC50 (nM), antiproliferative activity of the antibody-drug conjugates against SK-BR-3 cells. The text has this:
SK-BR-3 cells with high expression of HER2 were selected as cell strains for in-vitro activity detection in the experiment and were used for evaluating the dose-effect relationship of the antibody-drug conjugates (ADCs) of the present invention on cell killing.
Take `CC[C@@]1(O)C(=O)OCc2c1cc1n(c2=O)Cc2c-1nc1cc(F)c(C)c3c1c2[C@@H](N)CC3` [Exatecan, reference compound]: the IC50 amounted to 0.73 nM.
